Key:
Type in all cases: in vivo
[1] = tested on: Phakopsora pachyrhizi; experiment: Test A: preventive spray on soybean seedlings, Asian soybean rust, visual disease rating
[2] = tested on: Plasmopara viticola; experiment: Test B: preventive spray on grape seedlings, grape downy mildew, disease rating
From the text: General protocol for preparing test solutions for Tests AG: the test compounds were first dissolved in acetone in an amount equal to 3% of the final volume and then suspended at the desired concentration (in ppm) in acetone and purified water (50/50 mix by volume) containing the surfactant PEG400 (polyhydric alcohol esters). The resulting test suspensions were then used in Tests AG. Compounds were sprayed at a concentration of 250 ppm or other indicated rate to the point of run-off on the test plants. The test solution was sprayed to the point of run-off on grape seedlings. […] A dash (-) indicates no test results.

[3] = tested on: Botrytis cinerea; experiment: Test C: preventive spray on tomato seedlings, gray mold, visual disease rating
In short: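 Tomato seedlings received a run-off spray, typically 250 ppm (or stated rate), ahead of gray mold inoculation and visual scoring. Test suspensions: acetone stock (3% of volume) diluted into 1:1 acetone/water containing PEG400.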

[4] = tested on: Phytophthora infestans; experiment: whole plant or invertebrate; settings: tomato seedlings
[5] = tested on: Zymoseptoria tritici; experiment: Test E: preventive spray on wheat seedlings, wheat leaf blotch, visual disease rating
In short: (§1)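 Preventive foliar spray of wheat seedlings to run-off, at 250 ppm or other indicated rate. Compounds dissolved in acetone (3% of final volume), suspended in 50/50 acetone–water with PEG400 surfactant. Disease rated visually.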

[6] = tested on: Puccinia recondita f. sp. tritici; experiment: Test F: preventive spray on wheat seedlings, wheat leaf rust, visual disease rating
In short: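 Preventive test: wheat seedlings were sprayed to run-off with compound suspended in acetone/water 50/50 plus PEG400 (250 ppm or other indicated rate). One day later they received Puccinia recondita f. sp. tritici spores, and disease was scored visually.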

[7] = tested on: Erysiphe graminis f. sp. tritici; experiment: Test G: preventive spray on wheat seedlings, wheat powdery mildew, visual disease rating
In short: as §1

[8] = 250 ppm, 100 = 100% disease control, 0 = no control

CSc1cnn(C)c(=O)c1C(=O)Nc1ccc(OC(F)(F)F)cc1 [Compound 109]
Test A disease control rating [1, 8]: 0%
Test B disease control rating [2, 8]: 0%
Test C disease control rating [3, 8]: 0%
Test D disease control rating [4, 8]: 0%
Test E disease control rating [5, 8]: 0%
Test F disease control rating [6, 8]: 0%
Test G disease control rating [7, 8]: 55%

Cn1ncc([S+](C)[O-])c(C(=O)Nc2ccc(OC(F)(F)F)cc2)c1=O (centres unmarked) [Compound 110]
Test A disease control rating ([1]; 50 ppm): 92%
Test B disease control rating ([2]; 50 ppm): 0%
Test C disease control rating ([3]; 50 ppm): 0%
Test D disease control rating ([4]; 50 ppm): 0%
Test E disease control rating ([5]; 50 ppm): 88%
Test F disease control rating ([6]; 50 ppm): 74%
Test G disease control rating ([7]; 50 ppm): 0%

Cn1ncc(S(C)(=O)=O)c(C(=O)Nc2ccc(OC(F)(F)F)cc2)c1=O [Compound 111]
Test A disease control rating [1, 8]: 98%
Test B disease control rating [2, 8]: 0%
Test C disease control rating [3, 8]: 0%
Test D disease control rating [4, 8]: 9%
Test E disease control rating [5, 8]: 93%
Test F disease control rating [6, 8]: 96%
Test G disease control rating [7, 8]: 0%

Cn1ncc([O-])c(C(=O)Nc2ccc(S(F)(F)(F)(F)F)cc2)c1=O.[Na+] [Compound 113]
Test A disease control rating [1, 8]: 73%
Test B disease control rating [2, 8]: 96%
Test C disease control rating [3, 8]: 0%
Test D disease control rating [4, 8]: 81%
Test E disease control rating [5, 8]: 79%
Test F disease control rating [6, 8]: 94%
Test G disease control rating [7, 8]: 90%

Cn1ncc(O)c(C(=O)Nc2cnc(Cl)cn2)c1=O [Compound 114]
Test A disease control rating [1, 8]: 39%
Test B disease control rating [2, 8]: 90%
Test C disease control rating [3, 8]: 0%
Test D disease control rating [4, 8]: 80%
Test E disease control rating [5, 8]: 55%
Test F disease control rating [6, 8]: 95%
Test G disease control rating [7, 8]: 0%

COc1ccc(Cn2ncc(O)c(C(=O)Nc3ccc(OC(F)(F)F)cc3)c2=O)cc1 [Compound 115]
Test A disease control rating [1, 8]: 0%
Test B disease control rating [2, 8]: 0%
Test C disease control rating [3, 8]: 0%
Test D disease control rating [4, 8]: 0%
Test E disease control rating [5, 8]: 26%
Test F disease control rating [6, 8]: 68%
Test G disease control rating [7, 8]: 0%

Cn1ncc(OS(=O)(=O)Cc2ccccc2)c(C(=O)Nc2ccc(OC(F)(F)F)cc2)c1=O [Compound 116]
Test A disease control rating [1, 8]: 25%
Test B disease control rating [2, 8]: 99%
Test C disease control rating [3, 8]: 0%
Test D disease control rating [4, 8]: 0%
Test E disease control rating [5, 8]: 60%
Test F disease control rating [6, 8]: 97%
Test G disease control rating [7, 8]: 0%

Cc1cc(C(F)(F)F)ccc1NC(=O)c1c(O)cnn(C)c1=O [Compound 117]
Test A disease control rating [1, 8]: 0%
Test B disease control rating [2, 8]: 100%
Test C disease control rating [3, 8]: 0%
Test D disease control rating [4, 8]: 97%
Test F disease control rating [6, 8]: 99%
Test G disease control rating [7, 8]: 90%

O=C(Nc1ccc(OC(F)(F)F)cc1)c1c(O)cnn(C2CC2)c1=O [Compound 120]
Test A disease control rating [1, 8]: 13%
Test B disease control rating [2, 8]: 98%
Test C disease control rating [3, 8]: 0%
Test D disease control rating [4, 8]: 97%
Test F disease control rating [6, 8]: 96%
Test G disease control rating [7, 8]: 89%

COC(=O)c1ccc(NC(=O)c2c(O)cnn(C)c2=O)cc1 [Compound 121]
Test A disease control rating [1, 8]: 0%
Test B disease control rating [2, 8]: 86%
Test C disease control rating [3, 8]: 0%
Test D disease control rating [4, 8]: 99%
Test E disease control rating [5, 8]: 14%
Test F disease control rating [6, 8]: 80%
Test G disease control rating [7, 8]: 0%

Cn1ncc(O)c(C(=O)Nc2ccccc2C(F)(F)F)c1=O [Compound 122]
Test A disease control rating [1, 8]: 0%
Test B disease control rating [2, 8]: 98%
Test C disease control rating [3, 8]: 0%
Test D disease control rating [4, 8]: 95%
Test E disease control rating [5, 8]: 96%
Test F disease control rating [6, 8]: 86%
Test G disease control rating [7, 8]: 96%

Cn1ncc(O)c(C(=O)Nc2ccc(Cl)cc2F)c1=O [Compound 123]
Test A disease control rating [1, 8]: 81%
Test B disease control rating [2, 8]: 90%
Test C disease control rating [3, 8]: 63%
Test D disease control rating [4, 8]: 90%
Test E disease control rating [5, 8]: 91%
Test F disease control rating [6, 8]: 100%
Test G disease control rating [7, 8]: 92%

CONc1cnn(C)c(=O)c1C(=O)Nc1ccc(OC(F)(F)F)cc1 [Compound 127]
Test A disease control rating [1, 8]: 0%
Test B disease control rating [2, 8]: 23%
Test C disease control rating [3, 8]: 0%
Test D disease control rating [4, 8]: 0%
Test E disease control rating [5, 8]: 27%
Test F disease control rating [6, 8]: 0%
Test G disease control rating [7, 8]: 0%

CN(C)c1cnn(C)c(=O)c1C(=O)Nc1ccc(C(F)(F)F)cc1F [Compound 128]
Test A disease control rating [1, 8]: 79%
Test B disease control rating [2, 8]: 100%
Test C disease control rating [3, 8]: 0%
Test D disease control rating [4, 8]: 67%
Test F disease control rating [6, 8]: 68%
Test G disease control rating [7, 8]: 0%

Cn1ncc(O)c(C(=O)Nc2ccc(S(=O)(=O)C(F)(F)F)cc2)c1=O [Compound 129]
Test A disease control rating [1, 8]: 0%
Test B disease control rating [2, 8]: 98%
Test C disease control rating [3, 8]: 0%
Test D disease control rating [4, 8]: 82%
Test F disease control rating [6, 8]: 89%
Test G disease control rating [7, 8]: 81%

Cn1ncc(OC/C=C/c2ccccc2)c(C(=O)Nc2ccc(OC(F)(F)F)cc2)c1=O [Compound 132]
Test A disease control rating [1, 8]: 0%
Test B disease control rating [2, 8]: 25%
Test C disease control rating [3, 8]: 0%
Test D disease control rating [4, 8]: 17%
Test E disease control rating [5, 8]: 50%
Test F disease control rating [6, 8]: 91%
Test G disease control rating [7, 8]: 97%

Cn1ncc(O)c(C(=O)Nc2c(Cl)cc(OC(F)(F)F)cc2Cl)c1=O [Compound 133]
Test B disease control rating [2, 8]: 100%
Test C disease control rating [3, 8]: 0%
Test D disease control rating [4, 8]: 89%
Test E disease control rating [5, 8]: 100%
Test F disease control rating [6, 8]: 86%
Test G disease control rating [7, 8]: 100%

Cn1ncc(O)c(C(=O)Nc2ccc(F)cc2Cl)c1=O [Compound 134]
Test A disease control rating [1, 8]: 75%
Test B disease control rating [2, 8]: 92%
Test C disease control rating [3, 8]: 0%
Test D disease control rating [4, 8]: 0%
Test E disease control rating [5, 8]: 45%
Test F disease control rating [6, 8]: 32%
Test G disease control rating [7, 8]: 90%

CON(C)c1cnn(C)c(=O)c1C(=O)Nc1ccc(OC(F)(F)F)cc1 [Compound 135]
Test A disease control rating [1, 8]: 0%
Test B disease control rating [2, 8]: 27%
Test C disease control rating [3, 8]: 0%
Test D disease control rating [4, 8]: 0%
Test E disease control rating [5, 8]: 2%
Test F disease control rating [6, 8]: 0%
Test G disease control rating [7, 8]: 0%

O=C(Nc1ccc(OC(F)(F)F)cc1)c1c(O)cn[nH]c1=O [Compound 136]
Test A disease control rating [1, 8]: 0%
Test B disease control rating [2, 8]: 100%
Test C disease control rating [3, 8]: 0%
Test D disease control rating [4, 8]: 91%
Test F disease control rating [6, 8]: 93%
Test G disease control rating [7, 8]: 0%

Cn1ncc(O)c(C(=O)Nc2ccc(C(F)(F)F)cc2Cl)c1=O [Compound 137]
Test A disease control rating [1, 8]: 0%
Test B disease control rating [2, 8]: 100%
Test C disease control rating [3, 8]: 0%
Test D disease control rating [4, 8]: 97%
Test E disease control rating [5, 8]: 30%
Test F disease control rating [6, 8]: 96%
Test G disease control rating [7, 8]: 47%

Cn1ncc(O)c(C(=O)Nc2ccc(C(F)(F)C(F)(F)F)cc2)c1=O [Compound 138]
Test B disease control rating [2, 8]: 100%
Test C disease control rating [3, 8]: 0%
Test D disease control rating [4, 8]: 99%
Test E disease control rating [5, 8]: 99%
Test F disease control rating [6, 8]: 100%
Test G disease control rating [7, 8]: 99%

Cn1ncc(O)c(C(=O)Nc2c(Cl)cccc2Cl)c1=O [Compound 141]
Test A disease control rating [1, 8]: 50%
Test B disease control rating [2, 8]: 96%
Test C disease control rating [3, 8]: 0%
Test F disease control rating [6, 8]: 68%
Test G disease control rating [7, 8]: 64%

Cn1ncc(O)c(C(=O)Nc2ccc(F)cc2F)c1=O [Compound 144]
Test A disease control rating [1, 8]: 0%
Test B disease control rating [2, 8]: 100%
Test C disease control rating [3, 8]: 0%
Test D disease control rating [4, 8]: 99%
Test F disease control rating [6, 8]: 99%
Test G disease control rating [7, 8]: 87%

Cn1ncc(O)c(C(=O)Nc2cccc(Oc3ccccc3)c2)c1=O [Compound 151]
Test A disease control rating [1, 8]: 0%
Test B disease control rating [2, 8]: 83%
Test C disease control rating [3, 8]: 0%
Test D disease control rating [4, 8]: 0%
Test F disease control rating [6, 8]: 85%
Test G disease control rating [7, 8]: 13%

N-(4-Bromophenyl)-2,3-dihydro-5-hydroxy-2-methyl-3-oxo-4-pyridazinecarboxamide [Compound 75]
Test B disease control rating [2, 8]: 86%
Test C disease control rating [3, 8]: 0%
Test D disease control rating [4, 8]: 93%
Test E disease control rating [5, 8]: 83%
Test F disease control rating [6, 8]: 98%
Test G disease control rating [7, 8]: 13%

From patent publication US20190133128A1, “Fungicidal pyridazinones” (FMC Corporation, priority 2017, published 2019)
